Consider four compounds from patent US20250049747A1, “USE OF HYPERPOLARIZING AGENTS ALONE AND IN COMBINATION WITH OTHER THERAPEUTIC AGENTS FOR TREATING CANCERS INCLUDING GLIOBLASTOMA” (Trustees of Tufts College, priority 2021, published 2025).

The test system of data set [1] is NG108-15 cells. Briefly: Automated patch-clamp electrophysiology, resting membrane potential. Format: cell-based, mouse/rat. As to conditions: NG108-15, immediately after application. On the procedure: Electrophysiology. SyncroPatch 384PE platform (Nanion Technologies®) was used to perform the automated patch-clamp experiments. This system provides giga-ohm resistance seals during simultaneous recording in the 384-well plate format. Cells were harvested 48-72 h after seeding 1-2×10^6 cells in T175 culture flasks (Falcon), then cells were rinsed with PBS (5 mL) and treated with 3 mL Accutase ([…] technologies) for 5 min at 37° C., re-suspended in 10 mL of serum-free media and pelleted at 1000 rpm for 3 min at RT. […] The cells were kept until the moment of the experiment in a temperature controlled dedicated reservoir at 10° C. and shaken at 200 rpm as described. The experiments were performed within one hour after the harvesting process. The assays were carried in single-hole chips with resistances between 4-5 MΩ after priming the chip with the following solutions (in mM), physiological extracellular solution (pECS) 10 HEPES, 140 NaCl, 5 Glucose, 4 KCl, 2 CaCl2), 1 MgCl2, 295-305 mOsm pH 7.4 (NaOH). Internal recording solution (in mM) 20 EGTA, 50 KCl, 10 NaCl, 60 KF, 10 HEPES at pH 7.2, and 285 mOsm. 15 μL of the cell suspension (50% v/v pECS/Medium no serum) was added to each well to a final density of 50-80K cells/mL. Cell capture was promoted by holding a negative pressure of −100 mbar for 20 s. After successive hyperpolarization steps from −30 mV to −100 mV enhanced the capture the seal followed by the transient addition of a high Ca2+ extracellular solution (80 mM NaCl, 3 mM KCl, 35 mM CaCl2), 10 mM MgCl2, 10 mM HEPES at pH 7.4 and 298 mOsm. High Ca2+ solution is washed out by successive external exchanges replacing half of the volume of the well each time with the external recording solution. All recording solutions were prepared with ultrapure MilliQ water (18 MD-cm). After the formation of the Giga-seal, a 250 mbar pressure was applied to break the membrane patch. Once in whole-cell configuration, different voltage protocols were applied to dissect different conductances in NG108-15 cells. Signals were recorded in the current-clamp mode “I=0” (passive conditions) where no current was injected, to monitor the membrane potential. The membrane potentials were recorded for seven sweeps of 1 sec, with an inter-sweep time of 10 s. The average membrane potentials of the 7 sweeps were reported.
Electrophysiology of NG108-15 Cells Show Changes in Resting Membrane Potential Induced by Treatment. […] Untreated cells were patched, baseline measurements were taken and then the drugs were added and the changes in the cell Vmem were recorded.
For orientation: The patch-clamp technique gives a direct electrical read-out from membranes.

For data set [2] the following is noted: human, in vivo; cited from earlier work.
Data set [3] deals with NG108-15 cells. Briefly: Antibody staining, BrdU and senescence assays in NG108-15 cells. It is filed as cell-based, mouse/rat. The conditions noted are these: NG108-15, 6 days. On the procedure: Antibody Staining, BrdU and Senescence Assays. NG108-15 cells were plated on PEI and Matrigel coated plates at 15,000 or 30,000 cells/mL, U87 cells at 10,000 cells/mL and grown in imaging media for 6 days with drug treatment. Fresh media was added every 2 days. On day 6, cells were fixed with 4% formaldehyde in PBS for 30 minutes for all antibody staining, except for BrdU which was fixed for 15 minutes, and for the senescence assay which was fixed for 20 min using the Senescence Beta-Galactosidase Staining Kit (9860, CellSignaling) and thereafter stained according to manufacturer's protocol. After fixing, cells were washed twice with PBS, and were permeabilized in PBS with 0.3% Triton-X for 15 min then washed again twice with PBS. The cells for the BrdU assay were additionally treated with 1N HCl for 10 min on ice, followed by a treatment with 2N HCl for 50 min at room temp. Cells were then blocked with standard blocking buffer comprised of TBS containing 10% goat serum, 0.1% BSA, and with 0.05% Tween 20 or without detergent for antibodies against phosphorylated proteins or monoclonal antibodies except for Anti-YAP and Anti-BrdU staining, which were done according to manufacturer's protocol. Primary antibodies were added at the following concentrations: 1:250 anti-S100 beta (GTX129573, Genetex), 1:500 anti-GFAP (AB5804, EMD-Millipore), 1:300 anti-SOX10 (ab155279, Abcam), 1:100 MAP2 (4542, CellSignaling), 1:400 anti-cleaved caspase 3 (9661, CellSignaling), 1:300 anti-Cx43 (STJ2411, St. John's Labratory), 1:800 anti-p27^Kip1 (3698, CellSignaling), 1:150 anti-BrdU (5292, CellSignaling), 1:125 anti-LC3-II (2775, CellSignaling), 8 μg/mL anti-04 (MAB1326, R&D Systems), 1:1000 anti-TH (RPCA-TH, Encor), 1:4000 anti-NSE (RPCA-NSE, Encor), 1:4000 anti-NFM (RPCA-NF-M, Encor), 0.5 μg/mL anti-TujI (801202, Biolegend), 1:400 anti-NF-KB p65 (8242, CellSignaling), 1:125 anti-phospho CREB (05-807, EMD-Millipore), 1:250 anti-vimentin (ab92547, Abcam), 1:125 anti-YAP (14074, CellSignaling). Antibodies were diluted in their respective blocking buffer and incubated overnight at 4° C. The next day, cells were washed with TBS-T or TBS for 3× for 5 min each and secondary antibody was added as follows: 1:1000 donkey anti-mouse 647 (A-31571, Thermo-Fisher) or 1:1000 donkey anti-rabbit 647 (A-31573, Thermo-Fisher). Each were diluted in blocking buffer along with 2.5 μg/mL Hoechst 33342 and incubated for 1 hour at room temperature. Cells were then washed again with TBS-T or TBS for 3× for 5 min each and covered with Gelvatol. Cells were imaged with an EVOS M7000 system, with at least 50% of each well in a 96 well plate imaged and analyzed using a CellProfiler pipeline for measuring integrated intensity, mean intensity, or nuclear to cytoplasmic ratio of mean intensities.

The test system of data set [4] is human glioblastoma U87 cells. Kind of data set: Growth and FUCCI assays in U87 cells (cell counts, cell cycle, recovery test). It is filed as cell-based. As to conditions: for FUCCI cell cycle proportion: U87, day 6. On the procedure:
U87 (ATCC) cells were cultured under the same conditions as the NG108-15 cells minus the HAT supplement and used at passage 7-10 for experiments.

Data set [5] deals with NG108-15 cells. Briefly: Growth and FUCCI assays in NG108-15 cells (cell counts, cell cycle, recovery test). As to conditions: for cell proliferation compared to control (words): NG108-15, 6 days of treatment.
Procedure: Cells were plated in 96 well plates at a low confluence and drugs were added fresh every other day for 6 days. Some studies removed the drug at 6 days and added media with no drug for an additional 4 days to test for proliferation. Images of the cells were taken every day and a cell profiler pipeline was used to count the cells and determine the ratio of cells in each part of the cell cycle. […] Cell Culture. […] Cells were disassociated with Accutase and passaged when 70% confluent and maintained at 37° C. with 5% C02. Media was changed every two days. […] All drug screens including controls were done using 0.02% DMSO in the high serum Fluorobrite DMEM.
Growth and FUCCI assays. Both cell lines were plated at 5,000 cells per mL into black-walled flat-bottom 96-well plates coated with 1/50 dilution of Matrigel. Images of cells were taken on Day 0 and every subsequent day for 10 days using a Zeiss Axio1 fitted with an on-stage incubator and kept at 37° C. with 5% C02. A 5× objective was used along with filters for YFP, RFP, and CFP and careful calibration of each plate was done to ensure that the same fields of view were imaged each day. Drugs were added after the initial images were taken and then changed every two days until day 6. For recovery experiments, after imaging on day 6, all drugs were removed, and cells were put into imaging media without any added drugs. This media was changed every two days until day 10. Analysis of growth and snap shots of FUCCI reporters over the 6 days or 10 days was done using a CellProfiler [72]pipeline designed by the Broad. The fractional difference in cell number was calculated by dividing the total number of cells each day by the total number of cells from day 0. The ratio of cells in each cell cycle stage every day was determined by counting all the nuclei of one color and dividing it by the total number of nuclei. Blind quality control was done on all the images to make sure that any fibers or image artifacts were not incorrectly counted by the program.
For data set [6] the following is noted: cited from earlier work.

“Also recorded” adds a separate entry of the source.

As to `Nc1nnc(-c2cccc(Cl)c2Cl)c(N)n1` [Lamotrigine, lamotrigine], the “change in resting membrane potential compared to control” value (shortened to “change in resting membrane potential”) in the data set on NG108-15 cells [1] is “significantly hyperpolarized”.
Take `CO[C@H]1C[C@@H]2CC[C@@H](C)[C@@](O)(O2)C(=O)C(=O)N2CCCC[C@H]2C(=O)O[C@H]([C@H](C)C[C@@H]2CC[C@@H](O)[C@H](OC)C2)CC(=O)[C@H](C)/C=C(\C)[C@@H](O)[C@@H](OC)C(=O)[C@H](C)C[C@H](C)/C=C/C=C/C=C/1C` [Rapamycin, rapamycin]: the “change in resting membrane potential” value with NG108-15 cells [1] is “significantly hyperpolarized”. In addition, the “blood-brain barrier penetrance” value in data set [2] is listed as “cross the blood brain barrier effectively”. The LC3-II stain result in the data set on NG108-15 cells [3] is “significant increase”. The “FUCCI cell cycle proportion” value in data set [4] is listed as “increase in the G1 proportion”; with NG108-15 cells [5] (NG108-15, day 6), “increase in cells arrested at G1; also recorded: increased the proportion of cells in G1”. The “cell proliferation compared to control (words)” value in the data set with NG108-15 cells [5] is reported as “very significant decrease in proliferation”.
As for `CCOC(=O)Nc1ccc(NCc2ccc(F)cc2)cc1N` [Retigabine, retigabine], in the data set with NG108-15 cells [1], the “change in resting membrane potential” value is recorded as “significantly hyperpolarized; also recorded: hyperpolarized NG108-15 cells only slightly”. For the same compound, the “plasma protein binding affinity” value in data set [6] is on record as “about 80%”. Also, in the data set with NG108-15 cells [3], the BrdU incorporation entry was “significant decrease” and the “cleaved caspase 3 staining” value is “decrease the cleaved caspase 3 positive cells significantly”.
For `Cn1nnc2c(C(N)=O)ncn2c1=O` [TMZ, temozolomide], the “change in resting membrane potential” value in the data set on NG108-15 cells [1] was “significantly hyperpolarized”. The “cell proliferation compared to control (words)” value was “significantly effective” in data set [4] (U87, 6 days); “not significantly effective at reducing proliferation” in the data set with NG108-15 cells [5]; “not effective” in the data set with NG108-15 cells [5] (listed as temozolomide). Besides, the “percent reduction in cells compared to control” value in data set [4] (U87, 6 days of treatment) was 43%. The “FUCCI cell cycle proportion” value in data set [4] was “did not show a large change in proportion of cells”. In addition, the “recovery of proliferation after treatment removed” value in data set [4] (U87, drugs removed at day 6, followed to day 10) was “slight increase in proliferation after treatment was removed”.
